*1 amine or outer side, *2 acyl side, *3 side chain or, on linkers, in order; H or OH if unused. Where a SMILES comes first, the peptide text is derived from it. Bridges are numbered along the chain shown (N, C = ends). [ ]: non-standard residue; d: D form. The star is where a group is joined. hPhe(3,5-F2-4-CF3) = N[C@@H](CCc1cc(F)c(C(F)(F)F)c(F)c1)C(=O)O; hPhe(3-Cl-4-CF3) = N[C@@H](CCc1ccc(C(F)(F)F)c(Cl)c1)C(=O)O; NPrPhe(4-CF3) = CCCN[C@@H](Cc1ccc(C(F)(F)F)cc1)C(=O)O; X27 = COCCCN([C@@H](Cc1ccc(C)cc1)C(=O)[*:2])[*:1]; Piperazinyl(4-(3-oxetanyl)) = C1OCC1N1CCN(*)CC1; Morpholine(3S-CO) = O=C(O)[C@@H]1COCCN1; NMeGly(cPent) = CN[C@H](C(=O)O)C1CCCC1; αMeF = C[C@](N)(Cc1ccccc1)C(=O)O; NMeD = CN[C@@H](CC(=O)O)C(=O)O; NMeL = CN[C@@H](CC(C)C)C(=O)O; Morpholide = C1CN(*)CCO1; NMeA = CN[C@@H](C)C(=O)O; Ac5c = NC1(C(=O)O)CCCC1; Aze = O=C(O)[C@@H]1CCN1; NEtG = CCNCC(=O)O; Sar = CNCC(=O)O
Assays:
[1] = system: human lung cancer strain NCI-H441; assay type: cell-based
Procedure, shortened: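 Proliferation was scored by […] measured after the reagent was added to cultures kept at 37°C in 5% carbon dioxide.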

HRAS wild-type protein = HRAS wild-type protein (Homo sapiens, UniProt P01112); assay: Binding to HRAS by surface plasmon resonance (SPR), KD and KD ratio to KRAS
Sequence of HRAS wild-type protein (P01112 whole entry): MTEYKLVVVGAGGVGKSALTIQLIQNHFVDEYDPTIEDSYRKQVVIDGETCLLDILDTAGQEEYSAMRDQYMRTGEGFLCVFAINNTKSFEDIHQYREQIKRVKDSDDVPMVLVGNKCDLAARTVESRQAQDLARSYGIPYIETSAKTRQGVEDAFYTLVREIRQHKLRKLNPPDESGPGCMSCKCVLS
Procedure, shortened: (§1)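 Compound binding is evaluated by SPR single-cycle kinetics, with concentrations added intermittently from low to high for 75 s each. Target surfaces carry GDP-loaded biotinylated Avi-RAS at about 100–300 RU, regenerated after each cycle; temperature 30°C. A 1:1 binding model gives KD.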

[2] = target: GDP-bound NRAS wild-type protein (Homo sapiens, UniProt P01111); assay: Binding to NRAS by surface plasmon resonance (SPR), KD and KD ratio to KRAS
Sequence of GDP-bound NRAS wild-type protein (P01111 whole entry): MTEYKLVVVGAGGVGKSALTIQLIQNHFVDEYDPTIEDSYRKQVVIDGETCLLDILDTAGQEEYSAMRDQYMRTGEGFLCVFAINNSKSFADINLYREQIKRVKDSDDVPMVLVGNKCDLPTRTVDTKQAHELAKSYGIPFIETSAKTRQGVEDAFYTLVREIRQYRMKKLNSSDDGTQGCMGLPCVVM
Procedure, shortened: as §1

[3] = ratio of the KD value with respect to HRAS wild-type protein to the KD value with respect to KRAS
[4] = ratio of the KD value with respect to GDP-bound NRAS wild-type protein to the KD value with respect to KRAS
[5] = ratio of KD for HRAS wild-type protein to KD for KRAS
[6] = ratio of KD for GDP-bound NRAS wild-type protein to KD for KRAS
[7] = ratio of KD value for HRAS wild-type protein to KD value for KRAS (SPR)
[8] = ratio of KD value for GDP-bound NRAS wild-type protein to KD value for KRAS (SPR)

Structure (SMILES) | IC50 [1] [nM] | HRAS /KRAS (HRAS wild-type protein; [3]) | NRAS /KRAS [2, 4] | HRAS /KRAS (HRAS wild-type protein; [5]) | NRAS /KRAS [2, 6] | HRAS /KRAS (HRAS wild-type protein; [7]) | NRAS /KRAS [2, 8]
C#CCN1CC(=O)N(C)[C@H]2C/C=C\CCN(C2=O)[C@@H](Cc2ccc(C(F)(F)F)cc2)C(=O)N(C)CC(=O)N[C@@H](CCc2cc(F)c(C(F)(F)F)c(F)c2)C(=O)N2C[C@H](OCC)C[C@H]2C(=O)NC2(CC(C)(C)C2)C(=O)N(C)[C@@H](C2CCCC2)C(=O)N(C)[C@H](C(=O)N(C)C)CC(=O)N(C)[C@@H](CCC)C(=O)N[C@@H]([C@@H](C)CC)C1=O [PP2103] | 4.3 | A (a compound having 10 or more and less than 20 is denoted as A) | A (a compound having 10 or more and less than 20 is denoted as A) |  |  |  | 
CCC[C@H]1C(=O)N[C@@H]([C@@H](C)CC)C(=O)N(C)CC(=O)N(C)[C@H]2C/C=C\CCN(C2=O)[C@@H](Cc2ccc(C(F)(F)F)cc2)C(=O)N(C)CC(=O)N[C@@H](CCc2cc(F)c(C(F)(F)F)c(F)c2)C(=O)N(CC)CC(=O)NC2(CC(C)(C)C2)C(=O)N(C)[C@@H](C2CCCC2)C(=O)N(C)[C@H](C(=O)N(C)C)CC(=O)N1C [PP1777] | 79.3 |  |  |  |  | B (a compound having 3 or more and less than 10 is denoted as B) | A (a compound having 10 or more and less than 20 is denoted as A)
CC[C@H](C)[C@@H]1NC(=O)[C@H](CC2CC2)N(C)C(=O)C[C@@H](C(=O)N(C)C)N(C)C(=O)[C@H](C2CCCC2)N(C)C(=O)C2(CCC2)N(C)C(=O)[C@@H]2CCCN2C(=O)[C@H](CCc2cc(F)c(C(F)(F)F)c(F)c2)NC(=O)CN(C)C(=O)[C@H](Cc2ccc(C)cc2)N2CC/C=C\C[C@@H](C2=O)N(C)C(=O)[C@@H]2CCCN2C1=O [PP1798] | 7.8 |  |  |  |  | B (a compound having 3 or more and less than 10 is denoted as B) | A (a compound having 10 or more and less than 20 is denoted as A)
CCCN1C(=O)CN(C)C(=O)CN(C)C(=O)[C@H]([C@@H](C)CC)NC(=O)[C@H](CC(C)C)N(C)C(=O)C[C@@H](C(=O)N(C)C)N(C)C(=O)[C@H](C2CCCC2)N(C)C(=O)[C@](C)(Cc2ccccc2)NC(=O)[C@@H]2CCCN2C(=O)[C@H](CCc2cc(F)c(C(F)(F)F)c(F)c2)NC(=O)CN(C)C(=O)[C@@H]1Cc1ccc(C(F)(F)F)cc1 [PP0740] ([NMeL]I[Sar][Sar][NPrPhe(4-CF3)][Sar][hPhe(3,5-F2-4-CF3)]P[αMeF][NMeGly(cPent)][NMeD]-NMe2; lactam N-11) | 51.2 | C (A compound having a KD ratio of 0.1 or more and less than 3 is denoted as C) | B (a compound having 3 or more and less than 10 is denoted as B) |  |  |  | 
CCO[C@@H]1C[C@H]2C(=O)NC3(CC(C)(C)C3)C(=O)N(C)[C@@H](C(CC)CC)C(=O)N(C)[C@H](C(=O)N3CCCC3)CC(=O)N(C)[C@@H](CC)C(=O)N[C@@H]([C@@H](C)CC)C(=O)N(C)CC(=O)N(C)[C@H]3C/C=C\CCN(C3=O)[C@@H](Cc3ccc(C)cc3)C(=O)N(C)CC(=O)N[C@@H](CCc3cc(F)c(C(F)(F)F)c(F)c3)C(=O)N2C1 [PP2149] | 17.7 | A (a compound having 10 or more and less than 20 is denoted as A) | A (a compound having 10 or more and less than 20 is denoted as A) |  |  |  | 
CC[C@H](C)[C@@H]1NC(=O)[C@H](CC2CCCC2)N(C)C(=O)C[C@@H](C(=O)N(C)C)N(C)C(=O)[C@H](C2CCCC2)N(C)C(=O)C2(CCC2)NC(=O)[C@@H]2C[C@@H](C(F)(F)F)CN2C(=O)[C@H](CCc2cc(F)c(C(F)(F)F)c(F)c2)NC(=O)CN(C)C(=O)[C@H](Cc2ccc(C(F)(F)F)cc2)N2CC/C=C\C[C@@H](C2=O)N(C)C(=O)CN(C)C1=O [PP1505] | 4 |  |  |  |  | A (a compound having 10 or more and less than 20 is denoted as A) | A (a compound having 10 or more and less than 20 is denoted as A)

Second part, led by results:

IC50 [1] [nM] | Structure (SMILES) | HRAS /KRAS (HRAS wild-type protein; [3]) | NRAS /KRAS [2, 4] | HRAS /KRAS (HRAS wild-type protein; [5]) | NRAS /KRAS [2, 6] | HRAS /KRAS (HRAS wild-type protein; [7]) | NRAS /KRAS [2, 8]
2.2 | CC[C@H](C)[C@@H]1NC(=O)[C@H](CC(C)C)N(C)C(=O)C[C@@H](C(=O)N2CCOCC2)N(C)C(=O)[C@H](C2CCCC2)N(C)C(=O)C2(CCCC2)NC(=O)[C@@H]2CCCN2C(=O)[C@H](CCc2ccc(C(F)(F)F)c(Cl)c2)NC(=O)CN(C)C(=O)[C@H](Cc2ccc(C)cc2)N(CCCOC)C(=O)[C@@H]2CCN2C(=O)[C@H](C)N(C)C1=O [PP0093] ([NMeL]I[NMeA][Aze][X27][Sar][hPhe(3-Cl-4-CF3)]P[Ac5c][NMeGly(cPent)][NMeD]-Morpholide; lactam N-11) |  |  | B (a compound having 3 or more and less than 10 is denoted as B) | C (A compound having a KD ratio of 0.1 or more and less than 3 is denoted as C) |  | 
2.1 | CCCN1C(=O)[C@@H]2CCN2C(=O)[C@H](C)N(C)C(=O)[C@H]([C@@H](C)CC)NC(=O)[C@H](CC(C)C)N(C)C(=O)C[C@@H](C(=O)N2CCN(C3COC3)CC2)N(C)C(=O)[C@H](C2CCCC2)N(C)C(=O)C2(CCCC2)NC(=O)[C@@H]2CCCN2C(=O)[C@H](CCc2ccc(C(F)(F)F)c(Cl)c2)NC(=O)CN(C)C(=O)[C@@H]1Cc1ccc(C(F)(F)F)cc1 [PP0184] ([NMeL]I[NMeA][Aze][NPrPhe(4-CF3)][Sar][hPhe(3-Cl-4-CF3)]P[Ac5c][NMeGly(cPent)][NMeD]-{Piperazinyl(4-(3-oxetanyl))}; lactam N-11) |  |  | B (a compound having 3 or more and less than 10 is denoted as B) | C (A compound having a KD ratio of 0.1 or more and less than 3 is denoted as C) |  | 
20.2 | CCCN1C(=O)CN(C)C(=O)CN(CC)C(=O)[C@H]([C@@H](C)CC)NC(=O)[C@H](CC(C)C)N(C)C(=O)C[C@@H](C(=O)N2CCOCC2)N(C)C(=O)[C@H](C2CCCC2)N(C)C(=O)C2(CCCC2)NC(=O)[C@@H]2COCCN2C(=O)[C@H](CCc2ccc(C(F)(F)F)c(Cl)c2)NC(=O)CN(C)C(=O)[C@@H]1Cc1ccc(C(F)(F)F)cc1 [PP0299] ([NMeL]I[NEtG][Sar][NPrPhe(4-CF3)][Sar][hPhe(3-Cl-4-CF3)][Morpholine(3S-CO)][Ac5c][NMeGly(cPent)][NMeD]-Morpholide; lactam N-11) |  |  | B (a compound having 3 or more and less than 10 is denoted as B) | B (a compound having 3 or more and less than 10 is denoted as B) |  | 
11.1 | CCO[C@@H]1C[C@H]2C(=O)NC3(CC(C)(C)C3)C(=O)N(C)[C@@H](C(CC)CC)C(=O)N(C)[C@H](C(=O)N(C)C)CC(=O)N(C)[C@H]3CCCCC/C=C/c4ccc(cc4)C[C@@H](C(=O)N(C)CC(=O)N[C@@H](CCc4cc(F)c(C(F)(F)F)c(F)c4)C(=O)N2C1)N1CC/C=C\C[C@@H](C1=O)N(C)C(=O)CN(C)C(=O)[C@H]([C@@H](C)CC)NC3=O [PP3048] |  |  | A (a compound having 10 or more and less than 20 is denoted as A) | A (a compound having 10 or more and less than 20 is denoted as A) |  | 
24.8 | CC[C@H](C)[C@@H]1NC(=O)[C@H](CC2CCCC2)N(C)C(=O)C[C@@H](C(=O)N(C)C)N(C)C(=O)[C@@H](C2CCCC2)N(C)C(=O)C2(CCC2)NC(=O)[C@@H]2[C@@H](OCC(F)F)CCN2C(=O)[C@@H](CCc2cc(F)c(C(F)(F)F)c(F)c2)NC(=O)CN(C)C(=O)[C@@H](Cc2ccc(C)cc2)N2CC/C=C\C[C@H](C2=O)N(C)C(=O)CN(C)C1=O [PP1536] |  |  |  |  | B (a compound having 3 or more and less than 10 is denoted as B) | A (a compound having 10 or more and less than 20 is denoted as A)
